# Laboratory results taken from patent US9994614B2, “N-methyl-D-aspartate receptor modulators and methods of making and using same” (Naurex, Inc., priority 2014, dated 2018).
# Non-standard residues stand in square brackets, D forms with d. Residues, ends and D or L forms follow the SMILES beside them. Hyp = O=C(O)[C@@H]1C[C@@H](O)CN1
# Assays:
# Assay type in all cases: biochemical
# [1] = target: T1, NR2A (Rattus norvegicus, UniProt Q00959); assay: [3H]MK-801 potentiation assay, NR2A
# T1 construct: corresponding to 200 μg of rat cortical membrane extract protein in each reaction; from tissue; host or cells: rat telencephalon (frontal cortex and hippocampus), male Sprague-Dawley
# Description: Briefly, tissue that had been stored at −80° C. was homogenized in ice cold 10 mM Tris (pH7.4 at 4° C.) using a Brinkman Polytron and then pelleted by centrifugation at 51,500 g for 20 min. The resulting supernatant was discarded and the membranes were homogenized and washed an additional 3×. Pellets were then resuspended in 5 mM EDTA/15 mM Tris (pH7.4) and incubated for 1 hr at 37° C. The membrane suspensions were then pelleted by centrifugation at 51,500 g for 20 min and stored at −80° C. overnight. The pellets were resuspended in 10 mM Tris HCl (pH7.4 at 4° C.) and homogenized and washed an additional 7 times and frozen at […] until assay.
# Briefly, 300 μg of membrane extract protein were preincubated for 15 minutes at 25° C. in the presence of a saturating concentration of glutamate (50 μM) and varying concentrations of GLYX-13. […] Zero levels were determined in the absence of any glycine ligand in the presence of 30 μM dichlorokyneurenic acid. […]
# The origin of aberrantly high background glycine, or bioactive plastic leachates that act like glycine, can stemrom either the water itself, the LC/MS grade water filter used, or a result of time-dependent leaching from plasticware (including storage tubes, beakers, pipette tips). […] Absolute background percentages are calculated. […]
# Samples must wait at least 3 hours prior to quantitation in the scintillation counter. […]
# [2] = target: T2, NR2D (Rattus norvegicus, UniProt Q62645); assay: [3H]MK-801 potentiation assay, NR2D; settings: for NR2D Activity % max glycine: relative to stimulation by 1 mM glycine and 50 μM glutamate
# T2 construct: corresponding to 200 μg of rat cortical membrane extract protein in each reaction; from tissue; host or cells: rat telencephalon (frontal cortex and hippocampus), male Sprague-Dawley
# [3] = target: T3, NR2B (Rattus norvegicus, UniProt Q00960); assay: [3H]MK-801 potentiation assay, NR2B
# T3 construct: corresponding to 200 μg of rat cortical membrane extract protein in each reaction; from tissue; host or cells: rat telencephalon (frontal cortex and hippocampus), male Sprague-Dawley
# Description: Crude synaptic membranes were prepared using rat telencephalon (frontal cortex and hippocampus tissue) from male Sprague-Dawley rats and extensively washed using procedures modified from the Moskal et al. 2001 Review; The use of antibody engineering to create novel drugs that target N-methyl-D-aspartate receptors, Current Drug Targets, 2(3):331-45. Briefly, tissue that had been stored at −80° C. was homogenized in ice cold 10 mM Tris (pH7.4 at 4° C.) using a Brinkman Polytron and then pelleted by centrifugation at 51,500 g for 20 min. The resulting supernatant was discarded and the membranes were homogenized and washed an additional 3×. […]
# Functional glycine site agonist effects were measured using an a [^3H]MK-801 potentiation assay (see Urwyler S, Floersheim P, Roy B L, Koller M. J Med Chem. (2009) 52(16):5093-107). […] Zero levels were determined in the absence of any glycine ligand in the presence of 30 μM dichlorokyneurenic acid. The % maximal [^3H]MK-801 binding was calculated relative to stimulation measured in the presence of 1 mM glycine and 50 μM glutamate. […]
# For compounds with relatively low activity (e.g., GLYX-13), the identification and elimination of background glycine levels can have a significant effect on the interpretation of this assay. […] Absolute background percentages are calculated. […]
# [4] = target: T4, NR2C (Rattus norvegicus, UniProt Q00961); assay: [3H]MK-801 potentiation assay, NR2C; settings: relative to stimulation by 1 mM glycine and 50 μM glutamate
# T4 construct: corresponding to 200 μg of rat cortical membrane extract protein in each reaction; from tissue; host or cells: rat telencephalon (frontal cortex and hippocampus), male Sprague-Dawley
# [5] = target: T5, NR2C (Rattus norvegicus, UniProt P35439+Q00961); assay: [3H]MK-801 potentiation assay, NR2C; settings: in presence of 50 μM glutamate; read-out: NR2C Potency logM (converted)
# T5 construct: corresponding to 200 μg of rat cortical membrane extract protein in each reaction; from tissue; host or cells: rat telencephalon (frontal cortex and hippocampus), male Sprague-Dawley
# [6] = relative to stimulation by 1 mM glycine and 50 μM glutamate
# T2 sequence (Q62645 28-1323, other chains not shown): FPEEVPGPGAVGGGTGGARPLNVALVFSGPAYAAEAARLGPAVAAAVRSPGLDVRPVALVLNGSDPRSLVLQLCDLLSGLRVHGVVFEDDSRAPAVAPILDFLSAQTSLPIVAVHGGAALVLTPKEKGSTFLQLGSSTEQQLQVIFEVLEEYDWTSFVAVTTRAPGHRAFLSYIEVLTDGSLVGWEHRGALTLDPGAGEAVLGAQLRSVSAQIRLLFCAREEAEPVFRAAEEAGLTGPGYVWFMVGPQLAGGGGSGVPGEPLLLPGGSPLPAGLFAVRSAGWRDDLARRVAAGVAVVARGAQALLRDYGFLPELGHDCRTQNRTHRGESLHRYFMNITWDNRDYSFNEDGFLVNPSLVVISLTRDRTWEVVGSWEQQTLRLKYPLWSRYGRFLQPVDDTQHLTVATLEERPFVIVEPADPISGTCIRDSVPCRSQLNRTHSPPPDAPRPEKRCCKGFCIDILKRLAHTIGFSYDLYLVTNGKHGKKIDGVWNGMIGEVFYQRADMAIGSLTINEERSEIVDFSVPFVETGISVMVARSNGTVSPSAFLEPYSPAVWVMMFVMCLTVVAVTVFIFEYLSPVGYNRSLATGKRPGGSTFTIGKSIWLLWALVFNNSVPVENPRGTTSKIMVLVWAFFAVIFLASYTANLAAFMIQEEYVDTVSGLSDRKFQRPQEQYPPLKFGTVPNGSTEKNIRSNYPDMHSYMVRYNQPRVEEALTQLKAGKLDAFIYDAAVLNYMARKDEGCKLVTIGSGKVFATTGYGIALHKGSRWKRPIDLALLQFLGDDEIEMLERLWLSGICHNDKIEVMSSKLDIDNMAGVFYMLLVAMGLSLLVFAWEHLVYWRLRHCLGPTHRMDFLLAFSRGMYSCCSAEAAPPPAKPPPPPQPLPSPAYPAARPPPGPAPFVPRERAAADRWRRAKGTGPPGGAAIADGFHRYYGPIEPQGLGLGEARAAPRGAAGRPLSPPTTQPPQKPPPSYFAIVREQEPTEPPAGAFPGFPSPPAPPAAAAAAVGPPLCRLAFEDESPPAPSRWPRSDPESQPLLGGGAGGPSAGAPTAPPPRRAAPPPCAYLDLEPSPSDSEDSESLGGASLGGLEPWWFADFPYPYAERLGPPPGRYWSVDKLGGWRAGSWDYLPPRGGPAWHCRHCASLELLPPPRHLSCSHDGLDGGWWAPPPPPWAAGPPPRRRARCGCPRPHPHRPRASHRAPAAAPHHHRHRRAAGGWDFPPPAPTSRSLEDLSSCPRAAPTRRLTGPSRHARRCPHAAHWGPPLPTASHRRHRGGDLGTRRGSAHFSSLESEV
# T3 sequence (Q00960 27-1482, other chains not shown): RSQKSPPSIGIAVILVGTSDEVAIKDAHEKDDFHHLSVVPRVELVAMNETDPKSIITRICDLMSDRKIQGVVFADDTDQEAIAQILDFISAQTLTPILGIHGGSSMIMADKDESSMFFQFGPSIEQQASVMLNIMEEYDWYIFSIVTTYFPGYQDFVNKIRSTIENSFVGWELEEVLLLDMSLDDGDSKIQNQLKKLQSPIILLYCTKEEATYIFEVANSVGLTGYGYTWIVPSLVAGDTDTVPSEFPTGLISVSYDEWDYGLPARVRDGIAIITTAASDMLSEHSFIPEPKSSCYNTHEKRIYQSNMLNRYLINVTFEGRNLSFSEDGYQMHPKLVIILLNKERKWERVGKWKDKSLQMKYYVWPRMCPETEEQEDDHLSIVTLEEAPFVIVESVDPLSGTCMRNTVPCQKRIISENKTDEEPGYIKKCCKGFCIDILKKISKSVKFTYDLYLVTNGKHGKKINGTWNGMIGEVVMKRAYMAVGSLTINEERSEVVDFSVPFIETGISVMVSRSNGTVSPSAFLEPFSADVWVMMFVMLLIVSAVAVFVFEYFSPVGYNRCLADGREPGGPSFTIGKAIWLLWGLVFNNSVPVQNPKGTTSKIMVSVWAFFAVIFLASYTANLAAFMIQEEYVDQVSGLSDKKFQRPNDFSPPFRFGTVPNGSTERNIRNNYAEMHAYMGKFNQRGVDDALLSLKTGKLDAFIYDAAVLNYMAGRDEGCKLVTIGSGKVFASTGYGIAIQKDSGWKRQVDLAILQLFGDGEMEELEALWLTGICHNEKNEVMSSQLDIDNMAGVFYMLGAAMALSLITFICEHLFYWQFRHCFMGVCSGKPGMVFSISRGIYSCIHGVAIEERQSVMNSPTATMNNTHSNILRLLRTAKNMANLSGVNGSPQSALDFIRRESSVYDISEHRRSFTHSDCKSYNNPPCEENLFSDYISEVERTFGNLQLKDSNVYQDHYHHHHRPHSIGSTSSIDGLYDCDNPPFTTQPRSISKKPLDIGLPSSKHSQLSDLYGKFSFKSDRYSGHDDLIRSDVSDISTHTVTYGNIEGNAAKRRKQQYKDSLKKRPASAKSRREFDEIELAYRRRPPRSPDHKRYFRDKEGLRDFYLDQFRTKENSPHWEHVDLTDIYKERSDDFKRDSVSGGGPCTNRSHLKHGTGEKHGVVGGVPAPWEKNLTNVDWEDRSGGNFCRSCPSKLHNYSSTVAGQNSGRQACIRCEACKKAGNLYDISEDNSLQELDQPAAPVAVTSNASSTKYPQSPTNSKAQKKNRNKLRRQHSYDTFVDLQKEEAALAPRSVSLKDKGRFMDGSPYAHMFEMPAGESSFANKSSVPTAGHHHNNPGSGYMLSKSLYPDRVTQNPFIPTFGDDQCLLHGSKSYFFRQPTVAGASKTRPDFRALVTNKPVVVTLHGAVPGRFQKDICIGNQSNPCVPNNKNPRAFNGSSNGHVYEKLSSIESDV
# T1 sequence (Q00959 23-1464, other chains not shown): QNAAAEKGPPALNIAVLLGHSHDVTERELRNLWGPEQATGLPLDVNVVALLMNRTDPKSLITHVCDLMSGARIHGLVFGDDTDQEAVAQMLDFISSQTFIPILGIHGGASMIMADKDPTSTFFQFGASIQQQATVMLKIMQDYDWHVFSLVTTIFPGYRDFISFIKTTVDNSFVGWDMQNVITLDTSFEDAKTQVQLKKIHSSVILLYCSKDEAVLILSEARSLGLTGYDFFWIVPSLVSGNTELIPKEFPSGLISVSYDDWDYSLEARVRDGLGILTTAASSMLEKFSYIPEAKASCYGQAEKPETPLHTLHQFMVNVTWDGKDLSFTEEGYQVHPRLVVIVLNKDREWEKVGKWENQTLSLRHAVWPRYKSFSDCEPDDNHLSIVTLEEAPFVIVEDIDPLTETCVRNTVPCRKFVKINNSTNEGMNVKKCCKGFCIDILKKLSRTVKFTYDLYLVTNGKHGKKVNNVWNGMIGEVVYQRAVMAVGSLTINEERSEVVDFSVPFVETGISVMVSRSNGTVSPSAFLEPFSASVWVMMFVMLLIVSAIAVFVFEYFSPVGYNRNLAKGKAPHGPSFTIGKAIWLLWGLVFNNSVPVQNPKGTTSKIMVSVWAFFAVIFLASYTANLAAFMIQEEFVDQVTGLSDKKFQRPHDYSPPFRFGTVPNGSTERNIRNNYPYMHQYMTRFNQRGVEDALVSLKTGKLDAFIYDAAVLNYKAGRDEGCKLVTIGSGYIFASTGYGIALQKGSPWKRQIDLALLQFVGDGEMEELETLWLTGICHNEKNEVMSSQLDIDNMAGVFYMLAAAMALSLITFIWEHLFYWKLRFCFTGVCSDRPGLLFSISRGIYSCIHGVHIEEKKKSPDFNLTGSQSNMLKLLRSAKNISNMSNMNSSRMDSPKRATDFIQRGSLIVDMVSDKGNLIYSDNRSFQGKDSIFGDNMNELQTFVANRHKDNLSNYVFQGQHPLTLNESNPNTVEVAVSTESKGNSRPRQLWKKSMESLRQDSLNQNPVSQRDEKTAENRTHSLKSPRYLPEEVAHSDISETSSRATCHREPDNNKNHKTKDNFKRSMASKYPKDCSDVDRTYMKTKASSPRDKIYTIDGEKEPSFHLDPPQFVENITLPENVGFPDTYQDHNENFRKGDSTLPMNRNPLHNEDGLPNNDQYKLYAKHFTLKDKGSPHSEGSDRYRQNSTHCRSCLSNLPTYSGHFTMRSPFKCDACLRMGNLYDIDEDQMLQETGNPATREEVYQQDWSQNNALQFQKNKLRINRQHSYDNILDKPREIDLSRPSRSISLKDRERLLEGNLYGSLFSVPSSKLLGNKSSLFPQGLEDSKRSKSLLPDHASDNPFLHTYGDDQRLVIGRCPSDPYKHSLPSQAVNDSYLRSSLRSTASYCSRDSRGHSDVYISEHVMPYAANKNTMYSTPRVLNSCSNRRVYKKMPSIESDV
SMILES,"EC50 ([1]; in presence of 50 μM glutamate, read-out: NR2A Potency logM (converted)) [pM]","NR2A Activity % max glycine [1, 6] [% max glycine]",NR2D Potency logM ([2]; in presence of 50 μM glutamate) [logM],NR2D Activity % max glycine [2] [% max glycine],NR2B Potency logM ([3]; in presence of 50 μM glutamate) [logM],"NR2B Activity % max glycine [3, 6] [% max glycine]","EC50 ([2]; in presence of 50 μM glutamate, read-out: NR2D Potency logM (converted)) [pM]",NR2C Activity % max glycine [4] [% max glycine],EC50 [5] [pM]
CC(=O)OC1C[C@@H](C(=O)N[C@@H](Cc2c[nH]c3ccccc23)C(=O)N[C@H](C(N)=O)[C@@H](C)O)N(C(=O)[C@@H](N)[C@@H](C)O)C1 (stereo partly shown) [Compound A-3],17.4,58.25,−13.68,35.17,,,,,
C[C@@H](O)[C@H](NC(=O)[C@H](Cc1c[nH]c2ccccc12)NC(=O)[C@@H]1C[C@@H](O)CN1)C(N)=O [Compound A-5] (H-[Hyp]-Trp-Thr-NH2),,,,41.34,−13.86,29.53,2.34,38.75,2.09
